Reference: patent US3943154A, “Acylamides of beta-cyano-ethenesulfonyl substituted aminoarenes” (Sanitized Incorporated, priority 1973, dated 1976)
Converted amounts (≈) assume the structure as drawn. Like-named read-outs stand apart in the source and are kept apart here.

Experiments:
Format in all cases: cell-based
[1] = system: Aspergillus niger ATCC 6257; assay: agar incorporation test, antifungal activity; conditions: lowest concentration showing no growth or sporulation, four days at 28° C; for MIC: Aspergillus niger, ATCC6257, 96 h, read-out: Antifungal Activity A. niger, minimum inhibitory concentration
Experimental: The anti-fungal activity of the test compounds was determined employing the "agar incorporation" technique, utilizing spores from Aspergillus niger ATCC 6257 as a representative organism. Test solutions were prepared as described above in acetone or dimethylsulfoxide. A source of carbon agar such as Mycophil Agar was used. The agar was melted and cooled and placed in a constant temperature water bath at 45° C + 3° C. About 13-14 ml of the agar was then poured into a sterile Petri dish, the required amount of test solution to give the desired concentration immediately added thereto, and the dish rotated and swirled by hand to obtain a uniform mixture before the agar hardened.
The hardened plates were inoculated with the test organism by fishing spores from a 7-14 day old slant with the inocculating needle and spotting the spores on the plates, usually in several places. The inoculated plates were incubated for four days in an incubator maintained at 28° C +2° C and with a relative humidity of 95%+.
The lowest concentration of each test compound showing no growth or sporulation of the test organism was taken as the minimum inhibitory concentration and is reported in the following tabulation.
(§1) The button assay and agar incorporation tests were also utilized to determine the corresponding inhibitory concentrations of various control materials, viz., the following well known commercial antimicrobials and fungicides: hexachlorophene, tribromosalicylanilide, trichlorocarbanilide,Captan (N-(trichloromethylthio)4cyclohexene-1,2-dicarboximide) and Zineb (zinc ethylenebis[dithiocarbamate]). The minimum inhibitory concentration of each of the various control materials against the respective organisms is indicated in Table IV below: […]

[2] = system: Bacillus subtilis ATCC 9525; assay: button assay, antibacterial activity; conditions: 24 hours at 37° C; for MIC: Bacillus subtilis, ATCC9525, lowest concentration showing a clear zone of inhibition, read-out: Antibacterial Activity B.subtilis, minimum inhibitory concentration
Experimental: (§2) In the test program, the minimum inhibitory concentrations of the respective test compounds against various Gram positive and Gram negative bacteria were determined, employing the "button assay" method. The test organisms utilized were standard cultures of Staphylococcus aureus ATCC 6538 DR, a penicillin resistant Gram positive bacterium; Bacillus subtilis ATCC 9525, a spore-forming Gram positive bacillus; and Salmonella typhosa ATCC 6539, a Gram negative bacterium.
(§3) In the tests the respective compounds were dissolved in a suitable solvent, usually acetone or dimethylsulfoxide, to give solutions with known concentrations of active material. The highest concentration was ordinarily 1000 ppm (parts per million) [0.1%], and dilutions were made in suitable steps down to 1 ppm. Penicillin test buttons of filter paper having a diameter of 13 mm (socalled "Peniassay" buttons) were added to each solution within a test tube and left submerged for five minutes. They were then removed and left to dry on paper towels under sterile conditions. A laminar flow sterile cabinet equipped with ultraviolet lamps operating under positive air pressure was utilized for this purpose.
(§4) An 18-24 hour old nutrient broth culture (standard 1.5% nutrient agar) prepared in conventional manner from a slant and having passed through at least three consecutive daily transfers was used for inoculation. Melted and cooled sterile agar (45° C) was inoculated with the respective broth cultures by addition of 20 ml broth per liter of agar. The agar was then dispensed into Petri dishes (20 ml per plate) under sterile conditions and allowed to harden.
(§5) The test buttons were placed on the surface of the hardened agar and the plates incubated for 24 hours at 37° C. Where, on inspection, a clear zone of inhibition appeared around the button, inhibition of growth was presumed. Where growth touched the button there was no inhibition. For each of the test compounds, the lowest concentration showing a clear zone is reported as the inhibitory concentration in the following table.
as §1

[3] = system: Staphylococcus aureus ATCC 6538 DR; assay: button assay, antibacterial activity; conditions: for MIC: Staphylococcus aureus, ATCC6538, 24 h, read-out: Antibacterial Activity S.aureus, minimum inhibitory concentration
Experimental: as §2, §3, §4
as §5, with “table. […]” for “table.”

[4] = system: Salmonella typhosa ATCC 6539; assay: button assay, antibacterial activity; conditions: for MIC: Salmonella enterica, read-out: Antibacterial Activity S.typhosa, minimum inhibitory concentration
Experimental: as §2
as §3, with “The” for “In the tests the respective compounds were dissolved in a suitable solvent, usually acetone or dimethylsulfoxide, to give solutions with known concentrations of active material. The”
as §4
as §5, with “table. […]” for “table.”

[5] = button assay, lowest concentration showing a clear zone of inhibition, 24 hours at 37° C

CCOC(=O)c1ccc(S(=O)(=O)Nc2ccc(S(=O)(=O)C=CC#N)cc2)cc1 [Example 27, 3-[4-(4-[…])BENZENESULFONYL]ACRYLONITRILE]
MIC [1]: 100 µg/mL (≈ 238 µM) | MIC [2]: 20 µg/mL (≈ 47.6 µM) | MIC [3]: 10 µg/mL (≈ 23.8 µM) | MIC ([4]; 24 h): 10 µg/mL (≈ 23.8 µM)

COc1ccc(S(=O)(=O)Nc2ccc(S(=O)(=O)C=CC#N)cc2)cc1 [Example 28, 3-[4-(4-methoxybenzenesulfonamido)benzenesulfonyl] acrylonitrile]
MIC [1]: > 1000 µg/mL | MIC [2]: 10 µg/mL (≈ 26.4 µM) | MIC [3]: 1 µg/mL (≈ 2.64 µM) | MIC ([4]; 24 h): 5 µg/mL (≈ 13.2 µM)

COc1ccc(S(=O)(=O)Nc2ccc(S(=O)(=O)C=CC#N)cc2)cc1OC [Example 29.1, 3-[4-(3,4-dimethoxybenzenesulfonamido)benzenesulfonyl]acrylonitrile]
MIC [1]: 300 µg/mL (≈ 734 µM) | MIC [2]: 10 µg/mL (≈ 24.5 µM) | MIC [3]: 20 µg/mL (≈ 49 µM) | MIC ([4]; 24 h): 10 µg/mL (≈ 24.5 µM)

COc1ccc(OC)c(S(=O)(=O)Nc2ccc(S(=O)(=O)C=CC#N)cc2)c1 [Example 29.2, 3-[4-(2,5-dimethoxybenzenesulfonamido)benzenesulfonyl]acrylonitrile]
MIC [1]: 1000 µg/mL (≈ 2450 µM) | MIC [2]: 20 µg/mL (≈ 49 µM) | MIC [3]: 20 µg/mL (≈ 49 µM) | MIC ([4]; 24 h): 50 µg/mL (≈ 122 µM)

CC(=O)Nc1ccc(S(=O)(=O)Nc2ccc(S(=O)(=O)C=CC#N)cc2)cc1 [Example 30, 3-[4-(4-[…])BENZENESULFONYL]ACRYLONITRILE]
MIC [1]: > 1000 µg/mL | MIC [2]: 50 µg/mL (≈ 123 µM) | MIC [3]: 50 µg/mL (≈ 123 µM) | MIC ([4]; 24 h): 50 µg/mL (≈ 123 µM)

N#CC=CS(=O)(=O)c1ccc(NC(=O)c2cccc(S(=O)(=O)Nc3ccc(S(=O)(=O)C=CC#N)cc3)c2)cc1 [Example 31, N'-4-(2-cyanoethenesulfonyl)phenylN"-3-(2-cyanoethenesulfonyl)phenylsulfamoylbenzamide]
MIC [1]: 100 µg/mL (≈ 172 µM) | MIC [2]: 20 µg/mL (≈ 34.3 µM) | MIC [3]: 20 µg/mL (≈ 34.3 µM) | MIC ([4]; 24 h): 20 µg/mL (≈ 34.3 µM)

N#CC=CS(=O)(=O)c1ccc(NS(=O)(=O)c2ccc(C3=CC3(Cl)Cl)cc2)cc1 [Example 32, 3-[4-(4-dichlorocarbostyrenesulfonamido)benzenesulfonyl]acrylonitrile]
MIC [1]: 1000 µg/mL (≈ 2200 µM) | MIC [2]: 5 µg/mL (≈ 11 µM) | MIC [3]: 5 µg/mL (≈ 11 µM) | MIC ([4]; 24 h): 5 µg/mL (≈ 11 µM)

N#CC=CS(=O)(=O)c1ccc(NS(=O)(=O)c2cccc(S(=O)(=O)Nc3ccc(S(=O)(=O)C=CC#N)cc3)c2)cc1 [Example 33, N.N'-bis-[4-(2-cyanoethenesulfonyl)phenyl]-1,3-phenylenesulfonamide]
MIC [1]: > 1000 µg/mL | MIC [2]: 10000 µg/mL (≈ 16200 µM) | MIC [3]: 300 µg/mL (≈ 485 µM) | MIC ([4]; 24 h): 100 µg/mL (≈ 162 µM)

N#CC=CS(=O)(=O)c1ccc(NS(=O)(=O)c2ccc(Oc3ccc(S(=O)(=O)Nc4ccc(S(=O)(=O)C=CC#N)cc4)cc3)cc2)cc1 [Example 34, 4,4'-N,N'-bis[4-(2-cyanoethenesulfonyl)-phenylsulfamoyl]diphenyl ether]
MIC [1]: > 1000 µg/mL | MIC [2]: 100 µg/mL (≈ 141 µM) | MIC [3]: 100 µg/mL (≈ 141 µM) | MIC ([4]; 24 h): 50 µg/mL (≈ 70.3 µM)

N#CC=CS(=O)(=O)c1ccc(NS(=O)(=O)c2ccc3ccccc3c2)cc1 [Example 35, 3-[4-(2-naphthalenesulfonamido)benzenesulfonyl]acrylonitrile]
MIC [1]: > 1000 µg/mL | MIC [2]: 5 µg/mL (≈ 12.5 µM) | MIC [3]: 10 µg/mL (≈ 25.1 µM) | MIC ([4]; 24 h): 5 µg/mL (≈ 12.5 µM)

CC(=O)Nc1nnc(S(=O)(=O)Nc2ccc(S(=O)(=O)C=CC#N)cc2)s1 [Example 38, 3-[4-(2-acetamido-1,3,4-thiadiazole-5-sulfonamido)benzenesulfonyl]acrylonitrile]
MIC [1]: 1000 µg/mL (≈ 2420 µM) | MIC [2]: 50 µg/mL (≈ 121 µM) | MIC [3]: 500 µg/mL (≈ 1210 µM) | MIC ([4]; 24 h): 100 µg/mL (≈ 242 µM)

N#CC=CS(=O)(=O)c1ccc(NSC(Cl)(Cl)Cl)cc1 [Example 42, 3-(4-trichlorosulfenamidobenzenesulfonyl)acrylonitrile]
MIC [1]: 1000 µg/mL (≈ 2800 µM) | MIC [2]: 20 µg/mL (≈ 55.9 µM) | MIC [3]: 20 µg/mL (≈ 55.9 µM) | MIC ([4]; 24 h): 20 µg/mL (≈ 55.9 µM)

N#CC=CS(=O)(=O)c1ccc(NSc2ccc([N+](=O)[O-])cc2)cc1 [Example 43, 3-[4-(4-nitrobenzenesulfenamido)benzenesulfonyl]acrylonitrile]
MIC [1]: 300 µg/mL (≈ 830 µM) | MIC [2]: 5 µg/mL (≈ 13.8 µM) | MIC [3]: 5 µg/mL (≈ 13.8 µM) | MIC ([4]; 24 h): 10 µg/mL (≈ 27.7 µM)

N#CC=CS(=O)(=O)c1ccc(N=S=O)cc1 [Example 44, 3-(4-sulfinylimidobenzenesulfonyl)acrylonitrile]
MIC [1]: 300 µg/mL (≈ 1180 µM) | MIC [2]: 10 µg/mL (≈ 39.3 µM) | MIC [3]: 20 µg/mL (≈ 78.6 µM) | MIC ([4]; 24 h): 10 µg/mL (≈ 39.3 µM)

N#CC=CS(=O)(=O)c1ccc(NP(=O)(Nc2ccc(S(=O)(=O)C=CC#N)cc2)Nc2ccc(S(=O)(=O)C=CC#N)cc2)cc1 [Example 45, TRIS-N,N', N"-4-(2-CYANOETHENESULFONYL)PHENYL PHOSPHORAMIDE]
MIC [1]: 300 µg/mL (≈ 449 µM) | MIC [2]: 5 µg/mL (≈ 7.48 µM) | MIC [3]: 50 µg/mL (≈ 74.8 µM) | MIC ([4]; 24 h): 50 µg/mL (≈ 74.8 µM)

CN(C)P(=O)(Nc1ccc(S(=O)(=O)C=CC#N)cc1)N(C)C [Example 51, bis-dimethylamido-4-(2-cyanoethenesulfonyl)anilidophosphine oxide]
MIC [1]: 100 µg/mL (≈ 292 µM) | MIC [2]: 20 µg/mL (≈ 58.4 µM) | MIC [3]: 20 µg/mL (≈ 58.4 µM) | MIC ([4]; 24 h): 10 µg/mL (≈ 29.2 µM)

N#CC=CS(=O)(=O)c1ccc(NP(=O)(Nc2ccc(S(=O)(=O)C=CC#N)cc2)N(CCCl)CCCl)cc1 [Example 52, di-(2-chloroethyl)amido-di-4-(2-cyanoethenesulfonylanilido)phosphine oxide]
Antifungal Activity A. niger, minimum inhibitory concentration [1]: 100 ppm | Antibacterial Activity B.subtilis, minimum inhibitory concentration ([2]; lowest concentration showing a clear zone of inhibition): 10 ppm | Antibacterial Activity S.aureus, minimum inhibitory concentration [3, 5]: 10 ppm | Antibacterial Activity S.typhosa, minimum inhibitory concentration [4, 5]: 10 ppm

N#CC=CS(=O)(=O)c1ccc(NP(=O)(OCC(Br)CBr)OCC(Br)CBr)cc1 (stereo not shown) [Example 56, 0,0-bis(2,3-dibromopropyl)-N-4-(2-cyanoethenesulfonyl)phenyl phosphoramide]
MIC [1]: 100 µg/mL (≈ 145 µM) | MIC [2]: 10 µg/mL (≈ 14.5 µM) | MIC [3]: 10 µg/mL (≈ 14.5 µM) | MIC [4, 5]: 10 µg/mL (≈ 14.5 µM)

N#CC=CS(=O)(=O)c1ccc(NP(=O)(Nc2ccc(S(=O)(=O)C=CC#N)cc2)c2ccccc2)cc1 [Example 58, phenyl-di-[4-(2-cyanoethenesulfonyl)anilido]phosphine oxide]
MIC [1]: 100 µg/mL (≈ 186 µM) | MIC [2]: 10 µg/mL (≈ 18.6 µM) | MIC [3]: 20 µg/mL (≈ 37.1 µM) | MIC ([4]; 24 h): 10 µg/mL (≈ 18.6 µM)

N#CC=CS(=O)(=O)c1ccc(NP(=S)(Nc2ccc(S(=O)(=O)C=CC#N)cc2)c2ccccc2)cc1 [Example 59, PHENYL-DI-[4-(2-CYANOETHENESULFONYL)ANILIDO]PHOSPHINE SULFIDE]
MIC [1]: 500 µg/mL (≈ 902 µM) | MIC [2]: 50 µg/mL (≈ 90.2 µM) | MIC [3]: 50 µg/mL (≈ 90.2 µM) | MIC [4, 5]: 50 µg/mL (≈ 90.2 µM)

S=C([S-])NCCNC(=S)[S-].[Zn+2] [Zineb, zinc ethylenebis[dithiocarbamate], reference compound]
MIC [1]: > 1000 µg/mL | MIC [2]: 300 µg/mL | MIC [3]: 300 µg/mL | MIC [4, 5]: > 10000 µg/mL

Oc1c(Cl)cc(Cl)c(Cl)c1Cc1c(O)c(Cl)cc(Cl)c1Cl [hexachlorophene, reference compound]
MIC [1]: > 1000 µg/mL | MIC [2]: 5 µg/mL (≈ 12.3 µM) | MIC [3]: 5 µg/mL (≈ 12.3 µM) | MIC [4, 5]: 20 µg/mL (≈ 49.2 µM)
